Data from US11236094B2, “Substituted pyrrolo[2,1-f][1,2,4]triazines as FGFR inhibitors” (CSPC ZHONGQI PHARMACEUTICAL TECHNOLOGY (SHIJIAZHUANG) CO., …, priority 2017, dated 2022).
Like-named read-outs stand apart in the source and are kept apart here.

Experiments:
[1] = biological target: human FGFR1 (Homo sapiens, UniProt P11362); test: 33P isotope-labeled kinase activity test, wild-type FGFR1; conditions: 33P-ATP 5 μM, 120 minutes
Description: (§1) Assay 1: Evaluation of Wild-Type Kinase Inhibitory Activity In Vitro

[2] = biological target: human FGFR4 (Homo sapiens, UniProt P22455); test: 33P isotope-labeled kinase activity test, wild-type FGFR4; conditions: 33P-ATP 100 μM, 120 minutes
Description: as §1

[3] = Pharmacokinetics in mice in vivo; conditions: female, mouse, plasma, Balb/c mice; for AUC: read-out: Area under the curve, AUC; for clearance: read-out: Clearance rate; for half-life: read-out: Half-life T1/2 (converted); for bioavailability: read-out: Bioavailability F
Description: Assay 3: Evaluation of Compounds' Pharmacokinetics
Experiment purpose: To test the pharmacokinetics of the compound in mice in vivo.
The pharmacokinetics profile in rodents after the intravenous injection and the oral administration of the compound was tested using a standard protocol. In experiments, the candidate compound was prepared as a clear solution, which was administered to the mice as a single intravenous injection and as an oral administration. The medium for the intravenous injection was 10% DMSO/10% solutol/80% water, and the medium for the oral administration was 0.5% sodium carboxymethylcellulose+0.2% Tween. The whole blood samples within 24 hours were collected. All blood samples were added to the well-labeled plastic centrifuge tubes, to which 0.5M K2-EDTA anticoagulant was added in advance. After the collection of blood samples, the blood samples were centrifuged at 4° C. at 3000 g for 10 minutes. The supernatant plasma was collected, promptly placed in the dry ice, and kept at a temperature of −20° C. or lower. The LC-MS/MS analysis method was used to quantitatively analyze the blood concentration, and the pharmacokinetics parameters, such as peak concentration, peak time, clearance rate, half-life, area under the curve and bioavailability were calculated.

Sequence of human FGFR1 (P11362 22-822): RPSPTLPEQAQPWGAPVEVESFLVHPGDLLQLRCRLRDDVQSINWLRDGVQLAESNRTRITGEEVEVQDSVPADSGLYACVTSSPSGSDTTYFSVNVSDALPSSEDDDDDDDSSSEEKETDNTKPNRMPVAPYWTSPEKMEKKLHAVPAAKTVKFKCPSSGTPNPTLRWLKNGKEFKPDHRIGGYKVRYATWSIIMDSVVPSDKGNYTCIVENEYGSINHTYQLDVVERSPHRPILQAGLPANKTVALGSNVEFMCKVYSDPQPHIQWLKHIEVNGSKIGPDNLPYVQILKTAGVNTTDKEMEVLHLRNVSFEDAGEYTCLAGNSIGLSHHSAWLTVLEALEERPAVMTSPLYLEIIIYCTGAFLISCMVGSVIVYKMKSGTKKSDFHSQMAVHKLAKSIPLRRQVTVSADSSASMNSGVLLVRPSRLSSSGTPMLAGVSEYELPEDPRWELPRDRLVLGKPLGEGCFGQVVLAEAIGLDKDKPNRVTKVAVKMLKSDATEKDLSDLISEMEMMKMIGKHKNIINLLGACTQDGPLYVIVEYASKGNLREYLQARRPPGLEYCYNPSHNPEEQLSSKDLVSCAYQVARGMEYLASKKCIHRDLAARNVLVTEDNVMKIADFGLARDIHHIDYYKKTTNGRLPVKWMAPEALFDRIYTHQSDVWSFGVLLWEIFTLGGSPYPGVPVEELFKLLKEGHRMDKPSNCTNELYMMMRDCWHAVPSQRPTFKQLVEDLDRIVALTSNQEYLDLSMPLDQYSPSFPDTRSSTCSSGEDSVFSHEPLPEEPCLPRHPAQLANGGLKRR
Sequence of human FGFR4 (P22455 22-802): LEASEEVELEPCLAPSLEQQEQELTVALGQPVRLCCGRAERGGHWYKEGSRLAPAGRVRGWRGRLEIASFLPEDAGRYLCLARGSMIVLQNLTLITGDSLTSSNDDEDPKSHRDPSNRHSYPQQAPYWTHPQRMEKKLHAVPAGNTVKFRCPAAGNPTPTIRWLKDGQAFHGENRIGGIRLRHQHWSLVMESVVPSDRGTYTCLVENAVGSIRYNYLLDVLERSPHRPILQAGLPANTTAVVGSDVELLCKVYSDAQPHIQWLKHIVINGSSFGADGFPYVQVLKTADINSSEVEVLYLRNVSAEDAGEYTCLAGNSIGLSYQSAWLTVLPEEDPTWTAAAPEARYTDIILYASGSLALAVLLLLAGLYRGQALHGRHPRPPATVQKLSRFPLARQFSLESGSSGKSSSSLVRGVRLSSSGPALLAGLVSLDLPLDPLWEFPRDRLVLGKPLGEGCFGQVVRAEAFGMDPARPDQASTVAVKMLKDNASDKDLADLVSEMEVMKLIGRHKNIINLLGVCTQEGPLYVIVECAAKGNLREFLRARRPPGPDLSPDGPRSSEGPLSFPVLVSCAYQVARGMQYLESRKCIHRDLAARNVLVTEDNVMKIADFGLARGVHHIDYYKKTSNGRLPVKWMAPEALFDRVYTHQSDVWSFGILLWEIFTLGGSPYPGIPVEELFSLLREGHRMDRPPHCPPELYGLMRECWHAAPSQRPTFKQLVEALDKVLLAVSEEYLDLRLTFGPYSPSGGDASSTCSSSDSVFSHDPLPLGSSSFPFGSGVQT

Row | Compound | IC50 ([1]; IC50 FGFR1, wild-type kinase) | IC50 [2] | also measured
1 | C=CC(=O)N1CCC(c2cc(-c3sc4c(OC)cc(C)cc4c3C)c3c(N)ncnn23)C1 (single isomer, unassigned) [Example 7] | 0.7 nM | 8.5 nM | 
2 | C=CC(=O)N1CCC(c2cc(-c3sc4c(OC)cc(C)cc4c3C)c3c(N)ncnn23)C1 (single isomer, unassigned) [Example 8] | 0.1 nM | 0.7 nM | 
3 | COc1cc(C)cc2cc(-c3cc(C4CCN(C(=O)/C=C/CN(C)C)C4)n4ncnc(N)c34)sc12 (single isomer, unassigned) [Example 12] | 0.2 nM | 2.6 nM | 
4 | COc1cc(C)cc2cc(-c3cc(C4CCN(C(=O)/C=C/CN(C)C)C4)n4ncnc(N)c34)sc12 (single isomer, unassigned) [Example 13] | 0.6 nM | 8.7 nM | 
5 | COc1cc(C)cc2cc(-c3cc(C4CCN(C(=O)CC#N)C4)n4ncnc(N)c34)sc12 (single isomer, unassigned) [Example 15] | 1.5 nM | 6.2 nM | AUC ([3]; intravenous injection (3 npk)): 2.03 µM·h; clearance ([3]; intravenous injection (3 npk)): 52 mL/min/kg; half-life ([3]; intravenous injection (3 npk)): 48 min; AUC ([3]; oral administration (10 npk)): 4.8 µM·h; bioavailability ([3]; oral administration (10 npk)): 70%
6 | COc1cc(C)cc2cc(-c3cc(C4CCN(C(=O)CC#N)C4)n4ncnc(N)c34)sc12 (single isomer, unassigned) [Example 16] | 0.8 nM | 5.3 nM | 
7 | C=CC(=O)N1CCC(c2c(COC)c(-c3cc4cc(C)cc(OC)c4s3)c3c(N)ncnn23)C1 (single isomer, unassigned) [Example 18] | 0.1 nM | 0.2 nM | 
8 | C=CC(=O)N1CCC(c2c(COC)c(-c3cc4cc(C)cc(OC)c4s3)c3c(N)ncnn23)C1 (single isomer, unassigned) [Example 19] |  | 0.1 nM | IC50 ([1]; read-out: IC50 FGFR1, wild-type kinase): 0.1 nM
9 | C=CC(=O)N1CCC(c2cc(-c3cc4cc(C)cc(OC)c4s3)c3c(N)ncnn23)C1 (centres unmarked) [Example 1] | 0.4 nM | 0.9 nM | 
10 | C=CC(=O)N1CC[C@@H](c2cc(-c3cc4cc(Cl)cc(OC)c4s3)c3c(N)ncnn23)C1 [Example 4] | 0.6 nM | 4.1 nM | 
11 | C=CC(=O)N1CC[C@H](c2cc(-c3cc4cc(Cl)cc(OC)c4s3)c3c(N)ncnn23)C1 [Example 5] | 0.3 nM | 0.7 nM | 
12 | C=CC(=O)N1CCCC(c2cc(-c3cc4cc(C)cc(OC)c4s3)c3c(N)ncnn23)C1 (centres unmarked) [Example 6] | 1.7 nM | 5.4 nM | 
13 | C=CC(=O)N1CC[C@H](c2cc(-c3sc4c(OC)cc(Cl)cc4c3C)c3c(N)ncnn23)C1 [Example 9] | 0.7 nM | 3.3 nM | 
14 | CC#CC(=O)N1CC[C@@H](c2cc(-c3cc4cc(C)cc(OC)c4s3)c3c(N)ncnn23)C1 [Example 10] | 0.2 nM | 1.5 nM | 
15 | CC#CC(=O)N1CC[C@H](c2cc(-c3cc4cc(C)cc(OC)c4s3)c3c(N)ncnn23)C1 [Example 11] | 0.1 nM | 0.1 nM | 
16 | C=CC(=O)N1CCC(O)(c2cc(-c3cc4cc(C)cc(OC)c4s3)c3c(N)ncnn23)C1 (centres unmarked) [Example 14] | 0.8 nM | 6.6 nM | 
17 | C=CC(=O)N1CC[C@H](c2cc(-c3nc4cc(OC)cc(OC)c4s3)c3c(N)ncnn23)C1 [Example 17] | > 10000 nM | > 10000 nM | 

Row | Compound | IC50 ([1]; IC50 FGFR1, wild-type kinase) | IC50 [2] | also measured
18 | CC#CC(=O)N1CCC(c2c(COC)c(-c3cc4cc(C)cc(OC)c4s3)c3c(N)ncnn23)C1 (centres unmarked) [Example 20] | 0.2 nM | 0.8 nM | 
19 | CCC(=O)N1CC[C@H](c2cc(-c3cc4c(F)c(OC)cc(OC)c4s3)c3c(N)ncnn23)C1 [Example 21] | 6.6 nM | 138 nM | 
20 | C=CC(=O)N1CC[C@@H](c2cc(-c3cc4c(F)c(OC)cc(OC)c4s3)c3c(N)ncnn23)C1 [Example 22] | 1.5 nM | 9.9 nM | 
21 | C=CC(=O)N1CC[C@H](c2cc(-c3cc4c(F)c(OC)cc(OC)c4s3)c3c(N)ncnn23)C1 [Example 23] | 0.2 nM | 0.2 nM | 
22 | CCC(=O)N1CC[C@@H](c2cc(-c3cc4c(F)c(OC)cc(OC)c4s3)c3c(N)ncnn23)C1 [Example 24] | 2.2 nM | 40 nM | 
23 | C=CC(=O)N1CC[C@H](c2cc(-c3cc4cccc(OC)c4o3)c3c(N)ncnn23)C1 [Example 25] | 250 nM | 477 nM | 
24 | CCC(=O)N1CC[C@@H](c2cc(-c3cc4cc(C)cc(OC)c4s3)c3c(N)ncnn23)C1 [Example 26] | 1.2 nM | 4.2 nM | 
25 | CCC(=O)N1CC[C@H](c2cc(-c3cc4cc(C)cc(OC)c4s3)c3c(N)ncnn23)C1 [Example 27] | 4.7 nM | 67 nM | 
26 | CCC(=O)N1CC[C@H](c2cc(-c3nc4cc(OC)cc(OC)c4s3)c3c(N)ncnn23)C1 [Example 28] | > 10000 nM | > 10000 nM | 
27 | COc1cc(OC)c2sc(-c3cc([C@@H]4CCN(C(=O)/C=C/CN(C)C)C4)n4ncnc(N)c34)cc2c1F [Example 29] | 0.5 nM | 9.2 nM | 
28 | COc1cc(OC)c2sc(-c3cc([C@H]4CCN(C(=O)/C=C/CN(C)C)C4)n4ncnc(N)c34)cc2c1F [Example 30] | 1.6 nM | 20 nM | 
29 | COc1cc(C)cc2cc(-c3cc([C@@H]4CCN(C(=O)/C=C/CN5CCOCC5)C4)n4ncnc(N)c34)sc12 [Example 31] | 1.1 nM | 9.6 nM | 
30 | COc1cc(C)cc2cc(-c3cc([C@H]4CCN(C(=O)/C=C/CN5CCOCC5)C4)n4ncnc(N)c34)sc12 [Example 32] | 4.7 nM | 80 nM | 
31 | C=CC(=O)N1CC[C@H](c2cc(-c3cc4cccc(OC)c4s3)c3c(N)ncnn23)C1 [Example 33] | 0.5 nM | 0.9 nM | 
32 | C=CC(=O)N1CC[C@@H](c2cc(-c3nc4cc(OC)cc(OC)c4s3)c3c(N)ncnn23)C1 [Example 34] | 126 nM | 462 nM | 
33 | C=CC(=O)N1CC[C@H](n2nc(C#Cc3cc(OC)cc(OC)c3)c3c(N)ncnc32)C1 [Reference Example 1, reference compound] |  |  | AUC ([3]; intravenous injection (3 npk)): 5.29 µM·h; clearance ([3]; intravenous injection (3 npk)): 22 mL/min/kg; half-life ([3]; intravenous injection (3 npk)): 42 min; AUC ([3]; oral administration (10 npk)): 11.9 µM·h; bioavailability ([3]; oral administration (10 npk)): 69%
